Literature values as cited in patent US8343544B2, “Oral sustained-release tablet” (Kyorin Pharmaceutical Co., Ltd., priority 2003, dated 2013).

Settings: conventional preparation

For `Cc1nccn1CCC(C(N)=O)(c1ccccc1)c1ccccc1` [KRP-197, 4-(2-methyl-1-imidazolyl)-2,2-diphenylbutylamide], the “absorption after an oral administration” value is listed as “rapidly absorbed” and the half-life (oral) is listed as “relatively short”.
